Values of other authors as cited in patent US20240093135A1, “BASE ELEMENT OF A MULTI-CHAMBER BIOCHIP, PRODUCTION OF THE MULTI-CHAMBER BIOCHIP, AND USE THEREOF FOR ESTABLISHING ORGAN AND DISEASE MODELS AND SUBSTANCE TESTS” (Dynamic42 GmbH, priority 2022, published 2024).

Conditions: PDMS chips, after 24 hours

## CCCC1COC(Cn2cncn2)(c2ccc(Cl)cc2Cl)O1 (stereo not shown) [propiconazole]
  detectable share of the starting concentration in the culture medium: less than 30%
